The series can be described thus: gradient 5% acetonitrile 3 min, to 50% in 2 min, to 85% in 15 min, held 3 min, 100 µL/min. As to conditions: column: Zorbax Extend-C18 2.1 x 50 mm; eluents: water / acetonitrile, 0.1% formic acid. The method, boiled down:
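The mobile phases were water and acetonitrile, each with 0.1% formic acid, pumped at 100 μL/min through a Zorbax Extend-C18 column (2.1 × 50 mm, 1.8 μm). Pure standards were injected as mixtures of ~100 molecules and detected by a quadrupole time-of-flight mass spectrometer in positive and negative ionization mode. Retention time came from computationally picked adduct peaks, each inspected by hand.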
`NC(=O)[C@@H]1CCCN1C(=O)[C@H](Cc1ccccc1)NC(=O)[C@@H]1CCCN1C(=O)[C@@H](N)Cc1ccc(O)cc1` had an RP-LC retention time of 584 s.

Regarding `CC1CCCCN1CCCNC(=O)CN1C(=O)c2ccccc2Sc2ncccc21` (centres undefined), the RP-LC retention time was determined as 661 s.

In the case of `O=C(c1ccc2[nH]ccc2c1)N1CCCN(C2CCN(CC3CC3)C2=O)CC1` (centres undefined), the RP-LC retention time was 888 s.

In turn, `O=C(C1CCN(c2nnc(-n3cccc3)s2)CC1)N1CCN(c2ccccn2)CC1` registered an RP-LC retention time of 640 s.

As for `Cc1cccc(C2CCCN2C(=O)c2nn(C)cc2Cl)c1` (centres undefined), the RP-LC retention time was 849 s.

As to `O=C(c1ccc(Cl)cc1)N1CCN(c2cc(-c3cccs3)[nH]n2)CC1`, the RP-LC retention time came out at 809 s.

As to `Cn1c(=O)c(-c2ccc(C(=O)NCCCN3CCCC3)cc2)nc2ccccc21`, the RP-LC retention time was determined as 616 s.

In turn, `Cc1ccc(S(=O)(=O)N2CCc3nc(-c4ccc(F)cc4)ncc3C2)cc1C` came in with an RP-LC retention time of 1170 s.

In turn, `COCc1cc(=O)n(CC(=O)Nc2cc(C)cc(C)c2)c(N2CCOCC2)n1` came in with an RP-LC retention time of 893 s.

Consider `COc1ccc(C(=O)Nc2sc3ccccc3c(=O)c2-c2cccs2)cc1OC`, for which the RP-LC retention time amounted to 951 s.

For the compound `CCOc1ccccc1C(=O)NC(c1ccccc1)c1nnc(N2CCCC2)o1` (centres undefined), the RP-LC retention time turned out to be 896 s.

As to `COc1ccc(C2Cn3nnc(-c4nc(-c5cccc(Cl)c5)no4)c3CO2)cc1` (centres undefined), the RP-LC retention time was 1250 s.

Turning to `CCCN1CCN(c2ncc(C(=O)Nc3ccc(OCC)cc3)c(N)n2)CC1`, the RP-LC retention time stood at 617 s.

Take `Cc1nc(N2CCOCC2)c2c(C(=O)NCCCc3ccccc3)c(C)oc2n1`: the RP-LC retention time is 805 s.

`O=c1n(CCOc2ccccc2)nc2c(S(=O)(=O)N3CCc4ccccc4C3)cccn12` gave an RP-LC retention time of 820 s.

Compound `O=C(c1cccs1)N1CCCC1c1nc(-c2ccccc2)n[nH]1` (centres undefined) returned an RP-LC retention time of 704 s.

For the compound `CSc1ccc(NC(=O)N2C[C@@H]3C[C@H]2C[C@@H]3NS(=O)(=O)c2ccccc2)cc1`, the RP-LC retention time worked out at 856 s.

`CCc1cccc(NC(=O)Cn2c(=O)n(-c3ccc(C)cc3)c(=O)c3c2cc(C)n3C)c1` came in with an RP-LC retention time of 975 s.

For the compound `Cn1cc(C(=O)NCc2ccc(F)cc2)c2cccnc21`, the RP-LC retention time turned out to be 721 s.

In turn, `CCn1ccc(C(=O)Nc2ccccc2)n1` displayed an RP-LC retention time of 801 s.

Take `O=c1n(Cc2ccccc2Cl)nc2ccc(S(=O)(=O)N3CCCCC3)cn12`: the RP-LC retention time was 979 s.

`COc1ccc(NC(=O)NCCc2nc3cccnc3n2-c2ccccc2)cc1OC`: the RP-LC retention time turned out to be 657 s.

Compound `Cc1cc(C(=O)NCC(O)(c2ccccc2)C(F)(F)F)no1` (centres undefined) displayed an RP-LC retention time of 776 s.

Consider `O=C(c1cccc(Cl)c1)N1C[C@@H]2C[C@H]1C[C@@H]2NS(=O)(=O)c1cccnc1`, for which the RP-LC retention time came to 709 s.

Take `Cc1cccc(OCc2nc(CCN(C)C(=O)NC3CCCCC3)no2)c1`: the RP-LC retention time stood at 938 s.

Compound `Cc1cc(C)n2nc(SCC(=O)N(C)Cc3ccccc3)nc2n1` yielded an RP-LC retention time of 710 s.

As for `CC(C)n1cc(S(=O)(=O)Nc2ccc(C#N)cc2)c2cccnc21`, the RP-LC retention time was 833 s.

In turn, `CCSc1nnnn1-c1ccc(NC(=O)c2ccc3nnsc3c2)cc1` showed an RP-LC retention time of 838 s.

The compound `CN(C)S(=O)(=O)N1CC[C@@H]2C(=O)NCCCCCCN(Cc3ccncc3)[C@@H]2C1` displayed an RP-LC retention time of 603 s.

`CCC(C)NC(=O)N1CCN(Cc2nc3cccnc3n2-c2ccc(OC)cc2)CC1` (centres undefined) came in with an RP-LC retention time of 621 s.

In turn, `Cc1cccc(-c2noc(Cn3ncn4nc(-c5cc(C)ccc5C)cc4c3=O)n2)c1` returned an RP-LC retention time of 1270 s.

Regarding `Cc1nc(-c2csc(S(=O)(=O)N3CCCC(C(=O)NCc4cccs4)C3)c2)no1` (centres undefined), the RP-LC retention time amounted to 847 s.

In the case of `O=C(Nc1ccc(-c2nnc3n2CCCC3)cc1)c1ccc(Cl)cc1`, the RP-LC retention time came out at 724 s.

Take `Cc1cc(NC(=O)CSc2ccc(-n3cccn3)nn2)on1`: the RP-LC retention time was found to be 666 s.

As for `Fc1ccc(CNc2cc(-n3cccn3)ncn2)cc1`, the RP-LC retention time turned out to be 830 s.

Regarding `COC(=O)c1ccc(CN2CCN(CCN3C(=O)C4C5C=CC(C5)C4C3=O)CC2)cc1` (centres undefined), the RP-LC retention time came to 561 s.

Compound `O=C(NCc1ccc(C(F)(F)F)cc1)C1CCCN(c2cn[nH]c(=O)c2)C1` (centres undefined) showed an RP-LC retention time of 712 s.

As to `Cc1cc(C)cc(Nc2nc(C)cc(=O)n2CC(=O)Nc2cccc(C#N)c2)c1`, the RP-LC retention time turned out to be 811 s.

Regarding `CC(C)NC(=O)c1ccc(OCC2CCN(C(=O)c3cccc(Cl)c3)CC2)cc1`, the RP-LC retention time came to 899 s.

As for `CCN(CC)C(=O)c1ccc2c(c1)N(CC(=O)NC1CCCCC1)C(=O)CS2`, the RP-LC retention time is 761 s.

In the case of `CCOc1ccc(CN2CCC(NC(=O)Cc3cccnc3)C2)cn1` (centres undefined), the RP-LC retention time was determined as 731 s.

`COc1ccc(CNC(=O)Cc2nnc(-c3ccccn3)o2)c(OC)c1` showed an RP-LC retention time of 696 s.

As for `Fc1cccc(-c2nc3ncccn3c2NC2CCCCC2)c1`, the RP-LC retention time is 834 s.

For the compound `COc1ccc(N2CCN(C(=O)c3sc4ncccc4c3-n3cccc3)CC2)cc1`, the RP-LC retention time is 917 s.

With `CC(C)N1CCn2c(nc3cc(C(=O)NCc4ccccc4Cl)ccc32)C1=O`, the RP-LC retention time worked out at 719 s.

On to `CCC(C(=O)N1CCN(c2cc(C)n3c(C)nnc3n2)CC1)c1ccccc1` (centres undefined), for which the RP-LC retention time was 650 s.

With `CC(C(=O)Nc1ccc(Cl)cc1F)C1CCN(C(=O)Nc2ccc(Cl)cc2)CC1` (centres undefined), the RP-LC retention time was 1020 s.

Turning to `CCc1ccc(C2=C(C)C(N3CCC(C(=O)NCc4ccc(C)o4)CC3)=NS2(=O)=O)cc1`, the RP-LC retention time came out at 944 s.

Take `COc1ccc2c(c1)C1(CCN(C(=O)c3ccc(F)cc3)C1)C(=O)N2` (centres undefined): the RP-LC retention time came out at 714 s.

`COc1cc(OC)cc(C(=O)N2CCN(c3cc(C)n4c(C)nnc4n3)CC2)c1` gave an RP-LC retention time of 601 s.

Consider `CC1(C(=O)NCc2ccc(F)cc2)Cn2cnc(C(=O)NCCc3ccccc3)c2C(=O)N1C1CC1` (centres undefined), for which the RP-LC retention time came to 772 s.

`COc1ccc(-c2nc3ncccn3c2NC2CCCCCC2)cc1OC`: the RP-LC retention time stood at 756 s.

Regarding `CCOCCCNC(=O)N1CCN(Cc2nc3cc(C(=O)N(C)C)ccc3n2CC)CC1`, the RP-LC retention time turned out to be 581 s.

The compound `CCCn1c(=O)sc2cc(S(=O)(=O)N3CCC(C(=O)N4CCCCC4)CC3)ccc21` displayed an RP-LC retention time of 876 s.

`CC1C(=O)NCCN1C(=O)CSc1ccc(Cl)cc1` (centres undefined): the RP-LC retention time came to 648 s.

Compound `c1cncc(-c2nc(-c3ccnc(N4CCCC4)c3)no2)c1` gave an RP-LC retention time of 590 s.

Compound `Cc1[nH]c(C(=O)N2CCC(CC(=O)NCc3ccccc3F)CC2)c(C)c1C(=O)OC(C)C` yielded an RP-LC retention time of 1030 s.

With `CC(=O)Nc1ccc(SCc2nnc(-c3ccc4c(c3)OCO4)o2)cc1`, the RP-LC retention time was 760 s.

The compound `CCOC(=O)CSc1nc2c(sc3ccccc32)c(=O)n1CCc1c[nH]c2ccccc12` showed an RP-LC retention time of 1220 s.

With `O=C1NC2(CCN(C(=O)Nc3ccc(F)cc3)CC2)Oc2ccccc21`, the RP-LC retention time is 742 s.

For `Cc1ccc(C(=O)N2CCC(n3nc(-c4ccsc4)ccc3=O)CC2)cc1`, the RP-LC retention time worked out at 835 s.

With `c1ccc(-c2noc(CN3CCCCC3c3nc(C4CC4)no3)n2)nc1` (centres undefined), the RP-LC retention time is 784 s.

`O=C(NCCc1ccccc1)C1=C2CCCN2c2ccc(F)cc2S1(=O)=O` returned an RP-LC retention time of 909 s.

`Cc1ccc(-c2noc(-c3cccnc3N3CCN(Cc4ccccc4)CC3)n2)cc1` returned an RP-LC retention time of 823 s.

With `O=C(NCCCN1CCCC1=O)c1ccc(-n2nnc3cccnc32)cc1`, the RP-LC retention time came out at 637 s.

Consider `CCCN(Cc1cccs1)C(=O)Nc1cc(OC)c(OC)c(OC)c1`, for which the RP-LC retention time was determined as 875 s.

As for `CCc1ccc(OCC(=O)Nc2cnn(CC)c(=O)c2N2CCOCC2)cc1`, the RP-LC retention time is 981 s.

In the case of `Cc1[nH]c2ccc(-c3nnc(SCC(=O)NCCc4nc5ccccc5[nH]4)o3)cc2c1C`, the RP-LC retention time turned out to be 667 s.

`COc1ccc(Cc2nc3ccccc3n2CC(N)=O)cc1OC` came in with an RP-LC retention time of 566 s.

The compound `CCCCN1C(=O)CN(S(=O)(=O)c2ccccc2)CC1(C)C(=O)NCc1ccc(F)cc1` (centres undefined) came in with an RP-LC retention time of 945 s.

Regarding `Cc1ccc(F)cc1S(=O)(=O)N1CCC2(C1)C(=O)N(C)c1ccccc12` (centres undefined), the RP-LC retention time worked out at 955 s.

The compound `Cc1cc(NC(=O)C2CCN(C(=O)C3Sc4ccccc4NC3=O)CC2)ccc1Br` (centres undefined) came in with an RP-LC retention time of 901 s.

As for `O=C(CSc1nnc(NC(=O)c2ccccc2C(F)(F)F)s1)NC1CCCCC1`, the RP-LC retention time amounted to 781 s.

As for `CC(C)n1nnc2cc(C(=O)O)ccc21`, the RP-LC retention time worked out at 687 s.

For the compound `CCOc1ccn(-c2ccc(F)cc2)c(=O)c1C(=O)Nc1ccc(Oc2ccnc(N)c2Cl)c(F)c1`, the RP-LC retention time was found to be 700 s.

`Cc1nc(-c2noc(-c3ccncc3)n2)cn1CC(=O)N1CCc2ccccc21` yielded an RP-LC retention time of 678 s.

Take `Cc1ccc(-c2noc(C3CCCN3C(=O)C3CC(=O)N(c4cccc(Cl)c4)C3)n2)cc1` (centres undefined): the RP-LC retention time was 1040 s.

`Cc1cc2n(n1)CCC(=O)N2CCCC(=O)N1CCOCC1` yielded an RP-LC retention time of 585 s.

With `Cc1ccc(NC(=O)CN2C(=O)CCCc3cc(S(=O)(=O)N4CCCC4)ccc32)cc1`, the RP-LC retention time turned out to be 855 s.

(Values after the METLIN SMRT retention time set (Domingo-Almenara et al. 2019).)
